US11278522B2, “Use of methadone metabolites for treatment of anxiety and depression” (Georgetown University, priority 2015, dated 2022)
Several values for one entry are separate records, joined by “and”; a condition that tells them apart may be missing. Equal entries are not always repeated. Structures can show the parent of a compound that is named as a salt.

Assays:
human α4β2 nAChRs = biological target: T1, human α4β2 nAChRs (Homo sapiens, UniProt P17787+P43681); assay: 86Rb+ efflux assay, inhibition of nicotine-stimulated efflux, α4β2 nAChRs; type: cell-based; details: 86Rb+ efflux stimulated by 100 μM nicotine; HEK cells YXα4β2H1; mean ± standard error
T1 construct: expressed in transfected cells
T1 sequence (P43681 29-627 limits assumed): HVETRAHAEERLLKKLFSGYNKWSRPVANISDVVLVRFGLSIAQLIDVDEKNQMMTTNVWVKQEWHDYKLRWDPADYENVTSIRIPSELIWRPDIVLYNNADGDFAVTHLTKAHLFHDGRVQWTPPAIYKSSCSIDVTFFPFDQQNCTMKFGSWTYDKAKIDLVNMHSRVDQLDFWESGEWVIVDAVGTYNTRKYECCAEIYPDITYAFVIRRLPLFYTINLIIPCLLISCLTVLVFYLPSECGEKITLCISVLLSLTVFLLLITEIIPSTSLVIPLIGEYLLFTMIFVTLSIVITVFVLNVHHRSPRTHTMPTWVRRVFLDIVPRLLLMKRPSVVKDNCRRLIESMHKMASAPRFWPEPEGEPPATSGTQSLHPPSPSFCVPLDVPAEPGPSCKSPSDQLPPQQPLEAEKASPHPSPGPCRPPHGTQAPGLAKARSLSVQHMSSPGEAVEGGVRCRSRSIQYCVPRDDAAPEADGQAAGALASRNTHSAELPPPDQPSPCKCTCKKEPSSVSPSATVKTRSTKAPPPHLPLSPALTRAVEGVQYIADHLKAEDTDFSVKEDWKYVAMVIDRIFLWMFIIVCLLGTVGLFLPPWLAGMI
T1 sequence (P17787 26-502): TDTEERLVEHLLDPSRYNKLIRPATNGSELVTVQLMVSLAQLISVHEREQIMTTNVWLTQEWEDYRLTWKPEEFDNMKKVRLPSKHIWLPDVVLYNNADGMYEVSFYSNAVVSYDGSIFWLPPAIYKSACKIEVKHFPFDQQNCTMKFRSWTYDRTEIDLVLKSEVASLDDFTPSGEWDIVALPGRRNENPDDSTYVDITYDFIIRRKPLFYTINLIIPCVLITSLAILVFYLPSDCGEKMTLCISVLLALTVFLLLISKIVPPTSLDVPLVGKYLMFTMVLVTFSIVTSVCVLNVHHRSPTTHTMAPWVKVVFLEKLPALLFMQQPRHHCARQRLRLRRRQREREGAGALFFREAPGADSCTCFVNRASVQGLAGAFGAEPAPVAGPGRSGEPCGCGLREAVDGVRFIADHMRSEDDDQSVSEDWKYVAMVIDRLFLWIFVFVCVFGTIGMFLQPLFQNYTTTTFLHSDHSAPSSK
Protocol: Stable cell lines and ^86Rb^+ efflux Assay. The cell lines expressing human α4β2 (YXα4β2H1) and α3β4 (YXα3β4H1) nAChRs were established recently (Xiao el al., 2012). These cell lines were maintained in minimum essential medium (MEM) supplemented with 10% fetal bovine serum, 100 units/mL penicillin G, […] streptomycin and selective antibiotics at 37° C. with 5% CO2 in a humidified incubator. Tissue culture medium and antibiotics were obtained from Invitrogen Corporation (Carlsbad, Calif.), unless otherwise stated. Fetal bovine serum was obtained from Gemini Bio-Products (Woodland, Calif.).
(§1) Functional properties of compounds at nAChRs expressed in the transfected cells were measured using ^86Rb^+ efflux assays as described previously (Xiao et al., 1998, 2001). In brief, cells were plated into 24-well plates coated with poly-D-lysine. The plated cells were grown at 37° C. for 18 to 24 hour to reach 85-95% confluence. The cells were then incubated in growth medium (0.5 mL/well) containing ^86Rb^+ (2 μCi/mL) for 4 hour at 37° C. The loading mixture was then aspirated, and the cells were washed four times with 1 mL buffer (15 mM HEPES, 140 mM NaCl, 2 mM KCl, 1 mM MgSO4, 1.8 mM CaCl2), 11 mM Glucose, pH 7.4). One mL of buffer with or without compounds to be tested was then added to each well. After incubation for 2 min, the assay buffer was collected for measurements of ^86Rb^+ released from the cells. Cells were then lysed by adding 1 mL of 100 mM NaOH to each well, and the lysate was collected for determination of the amount of ^86Rb^+ that was in the cells at the end of the efflux assay. Radioactivity of assay samples and lysates was measured by liquid scintillation counting. Total loading (cpm) was calculated as the sum of the assay sample and the lysate of each well, and the amount of ^86Rb^+ efflux was expressed as a percentage of ^86Rb^+ loaded. Stimulated ^86Rb^+ efflux was defined as the difference between efflux in the presence and absence of nicotine. […] IC50 values were determined by nonlinear least-squares regression analyses (GraphPad. San Diego, Calif.).

human α3β4 nAChRs = biological target: T2, human α3β4 nAChRs (Homo sapiens, UniProt P30926+P32297); assay: 86Rb+ efflux assay, inhibition of nicotine-stimulated efflux, α3β4 nAChRs; type: cell-based; details: 86Rb+ efflux stimulated by 100 μM nicotine; HEK cells YXα3β4H1; mean ± standard error
T2 construct: expressed in transfected cells
T2 sequence (P32297 32-505): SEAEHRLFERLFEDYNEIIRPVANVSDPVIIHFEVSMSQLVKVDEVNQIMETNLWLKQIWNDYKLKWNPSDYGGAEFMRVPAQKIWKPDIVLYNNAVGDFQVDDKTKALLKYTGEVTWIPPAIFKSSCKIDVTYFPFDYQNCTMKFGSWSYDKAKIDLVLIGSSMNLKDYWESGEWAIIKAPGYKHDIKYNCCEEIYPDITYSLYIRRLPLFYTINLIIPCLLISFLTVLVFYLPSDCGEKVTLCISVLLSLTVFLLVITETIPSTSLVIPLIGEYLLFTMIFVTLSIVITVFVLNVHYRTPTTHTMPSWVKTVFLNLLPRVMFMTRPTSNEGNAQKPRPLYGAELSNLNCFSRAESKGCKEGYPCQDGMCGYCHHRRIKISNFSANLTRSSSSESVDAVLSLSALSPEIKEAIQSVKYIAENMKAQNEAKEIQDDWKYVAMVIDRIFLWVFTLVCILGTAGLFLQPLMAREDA
T2 sequence (P30926 22-498): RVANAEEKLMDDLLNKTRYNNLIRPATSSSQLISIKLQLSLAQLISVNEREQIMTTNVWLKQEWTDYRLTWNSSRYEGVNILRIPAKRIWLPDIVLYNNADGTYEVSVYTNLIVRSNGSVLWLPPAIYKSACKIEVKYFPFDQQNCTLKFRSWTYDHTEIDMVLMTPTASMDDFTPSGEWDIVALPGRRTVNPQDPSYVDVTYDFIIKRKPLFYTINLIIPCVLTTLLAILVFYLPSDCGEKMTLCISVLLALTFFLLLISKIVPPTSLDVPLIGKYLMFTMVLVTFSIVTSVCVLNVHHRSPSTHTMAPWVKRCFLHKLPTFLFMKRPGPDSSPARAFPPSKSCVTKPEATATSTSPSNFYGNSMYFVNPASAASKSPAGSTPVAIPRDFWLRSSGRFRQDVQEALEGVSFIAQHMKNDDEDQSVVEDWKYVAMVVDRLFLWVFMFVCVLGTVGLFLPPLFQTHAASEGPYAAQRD
Protocol: Stable cell lines and ^86Rb^+ efflux Assay. […] These cell lines were maintained in minimum essential medium (MEM) supplemented with 10% fetal bovine serum, 100 units/mL penicillin G, […] and selective antibiotics at 37° C. with 5% CO2 in a humidified incubator. Tissue culture medium and antibiotics were obtained from Invitrogen Corporation (Carlsbad, Calif.), unless otherwise stated. Fetal bovine serum was obtained from Gemini Bio-Products (Woodland, Calif.).
as §1, with “In” for “Functional properties of compounds at nAChRs expressed in the transfected cells were measured using ^86Rb^+ efflux assays as described previously (Xiao et al., 1998, 2001). In”, “The plated cells were grown at 37° C. for 18 to 24 hour to reach 85-95% confluence.” left out

Marble burying (mice) = type: in vivo, mouse; details: 15 min test, vehicle mean 11 of 20
Protocol: Marble Burying (Mice) After a 1 h period of acclimation to the testing room, the mice (n=6-10 per group) were injected i.p. with saline, EDDP, EMDP, or CDP at the doses indicated. Ten minutes later, the mice were placed individually in small cages (26×20×14 cm), in which twenty marbles had been equally distributed on top of mouse bedding (5-cm deep), and a wire lid was placed on top of the cage. Mice were left undisturbed for 15 min, after which time the number of buried marbles (i.e., those covered by bedding three-quarters or more) was counted.

Forced swim test (rats) = type: in vivo, rat; details: three doses, 5 min test, vehicle 81 s
Protocol: Forced Swim Test (FST; Rats) The FST in rats was conducted as previously described (Porsolt et al., 2001). On day 1, rats were placed in a cylindrical chamber (20 cm in diameter, 46 cm deep) filled to a height of 38 cm with room temperature water for 15 min. After the completion of this pre-exposure test, animals were removed from the apparatus, dried with towels and placed under a heat lamp for ˜30 min. […] Animals were treated with these same doses again 20 h and 23 h after the initial dose. Twenty-four h after the pre-exposure, animals were re-introduced to the apparatus and video-recorded for 5 min. Immobility was hand-scored for each video record by a treatment blind observer (P.A.F.) using ANYmaze (Stoelting) to record the data.

[1] = Eyelid ptosis assessment (rats); type: in vivo, rat; details: 5 mg/kg
Protocol: Ptosis was assessed as previously described (Rubin et al., 1957). Each animal was photographed while gently restrained by hand. Photographs were analyzed by a treatment blind observer (P.A.F.) and assigned a score of 0 (no ptosis, eye completely open), 1 (mild, eye partially closed), 2 (moderate, eye half closed), 3 (severe, eye […] closed), or 4 (complete, eye completely closed).

opiate receptors = assay: [3H]-naloxone binding competition in rat forebrain membranes
[2] = Open field locomotor activity (rats); type: in vivo, rat; details: 10 mg/kg s.c., 30 min after injection
Protocol: Locomotor Activity (Rats) Locomotor activity was measured 30 minutes after sc injection of test compound. Animals were placed in a Plexiglass enclosure (16″×16″×16″, TruScan Arena, Coulbourn Instruments, Whitehall, Pa.) with 770 lux illumination over the center of the arena. Animals were allowed to explore for 20 min, during which total distance traveled was recorded using ANYmaze software (Stoelting Co., Wood Dale, Ill.), as previously described (Forcelli et al., 2012).

[3] = Elevated plus maze (rats); type: in vivo, rat
Protocol: Elevated Plus Maze (Rats) Plus maze testing was performed and scored as previously described (Forcelli and Heinrichs, 2008; Forcelli et al., 2012), in a standard grey rat elevated plus maze (50 cm arms, elevated 40 cm off the ground [Stoelting Co., Wood Dale, Ill.]). Testing was conducted under 20 lux red light, 30 min after drug administration. The number of arm entries and time spent in open and closed arms were recorded using ANYmaze (Stoelting Co, Wood Dale, Ill.).

Forced swim test (mice) = type: in vivo, mouse; details: 6 min test
Protocol: Forced Swim Test (FST; Mice) The FST in mice was conducted as previously described [11]. Briefly, 10 min following i.p. injection of saline, EDDP or EMDP, mice were placed in Plexiglas cylinders filled with water (25° C.) for 6 min while being videotaped. The forced swim score for the entire 6 min test was assessed using the Cleversystems videotracking system (CleverSys) and confirmed with visual scoring by a trained observer. A mouse was judged to be immobile when making only those movements necessary to keep its head above water.

rat α3β4 nAChR channels = rat α3β4 nAChR channels (Rattus norvegicus, UniProt P04757+P12392); details: Xiao et al., 2001; cited from earlier work
rat α3β4 nAChR channels, sequence (P04757 26-499): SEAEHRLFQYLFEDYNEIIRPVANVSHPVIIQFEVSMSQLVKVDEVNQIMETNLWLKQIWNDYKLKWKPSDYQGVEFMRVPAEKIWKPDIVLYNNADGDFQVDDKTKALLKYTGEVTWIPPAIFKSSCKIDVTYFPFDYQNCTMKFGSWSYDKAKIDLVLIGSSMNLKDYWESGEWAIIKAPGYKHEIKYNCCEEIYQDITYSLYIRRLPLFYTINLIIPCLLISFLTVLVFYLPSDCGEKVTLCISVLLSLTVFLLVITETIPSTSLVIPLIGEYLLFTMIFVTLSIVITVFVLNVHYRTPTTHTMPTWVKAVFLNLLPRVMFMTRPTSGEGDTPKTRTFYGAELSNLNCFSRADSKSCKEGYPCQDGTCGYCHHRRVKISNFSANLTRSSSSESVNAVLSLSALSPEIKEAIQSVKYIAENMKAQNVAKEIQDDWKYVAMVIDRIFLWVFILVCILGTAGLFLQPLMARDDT
rat α3β4 nAChR channels, sequence (P12392 21-495): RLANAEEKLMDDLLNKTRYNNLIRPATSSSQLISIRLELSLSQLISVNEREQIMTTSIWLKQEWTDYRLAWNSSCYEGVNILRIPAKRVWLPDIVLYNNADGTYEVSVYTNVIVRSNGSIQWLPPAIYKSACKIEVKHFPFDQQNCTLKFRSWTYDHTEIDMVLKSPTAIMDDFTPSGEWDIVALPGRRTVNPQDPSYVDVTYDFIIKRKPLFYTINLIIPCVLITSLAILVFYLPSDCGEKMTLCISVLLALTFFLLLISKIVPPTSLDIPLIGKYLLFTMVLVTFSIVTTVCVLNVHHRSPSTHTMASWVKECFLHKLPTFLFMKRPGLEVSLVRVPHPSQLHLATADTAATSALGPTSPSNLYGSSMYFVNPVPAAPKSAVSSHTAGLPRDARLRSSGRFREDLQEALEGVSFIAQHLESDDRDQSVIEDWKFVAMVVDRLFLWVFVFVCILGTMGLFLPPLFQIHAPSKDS

CCC1=NC(C)CC1(c1ccccc1)c1ccccc1 (single isomer, unassigned; (-)) [(−)-EMDP, 2-ethyl-5-methyl-3,3-diphenyl-1-pyrroline hydrochloride]
IC50 (human α4β2 nAChRs): 19000 ± 4000 nM | IC50 (human α3β4 nAChRs): 7000 ± 1200 nM

CNC1=Nc2ccc(Cl)cc2C(c2ccccc2)=[N+]([O-])C1 [CDP, chlordiazepoxide HCl, reference compound]
number of marbles buried vs vehicle (Marble burying (mice); 10 mg/kg i.p.): buried significantly fewer marbles

CN[C@H]1CC[C@@H](c2ccc(Cl)c(Cl)c2)c2ccccc21 [sertraline, sertraline HCl, reference compound]
immobile time in forced swim test vs vehicle (Forced swim test (rats); 20 mg/kg s.c.): significantly reduced immobile time

CC=C1N(C)C(C)CC1(c1ccccc1)c1ccccc1 (single isomer, unassigned; (+)) [(+)-EDDP, 2-ethylidene-1,5,dimethyl-3,3-diphenylpyrrolidine perchlorate]
IC50 (human α4β2 nAChRs): 1800 ± 600 nM | IC50 (human α3β4 nAChRs): 900 ± 90 nM

CNC1(C)C2CCC(C2)C1(C)C (centres unmarked) [Mecamylamine, Mecamylamine HCl]
IC50 (human α4β2 nAChRs): 1000 ± 300 nM | immobile time in forced swim test vs vehicle (Forced swim test (rats); 5 mg/kg s.c.): reduced immobile time | eyelid ptosis quantified over 3 h [1]: produced ptosis in a time-dependent manner | onset of ptosis after injection [1]: ≤ 15 min | ptosis observed during forced swim tests [1]: obvious ptosis

CC=C1N(C)C(C)CC1(c1ccccc1)c1ccccc1 (racemic) [EDDP, 2-ethylidene-1,5-dimethyl-3,3-diphenylpyrrolidine]
apparent affinity, fold lower than that of methadone (opiate receptors; rat forebrain [3H]-naloxone binding): ~83 fold and 84 fold | fraction of [3H]-naloxone binding sites competed for (opiate receptors; rat forebrain membranes): nearly all of the binding sites | Ki (opiate receptors; rat forebrain membranes, 2 nM [3H]-naloxone, single-site model): 918 nM | open field locomotor activity [2]: neither EDDP nor EMDP significantly altered | mean duration in the open arms of the elevated plus maze ([3]; 10 mg/kg s.c., 30 min after drug, vehicle 104 s): 80 s | percentage of entries made into the open arms of the plus maze ([3]; vs vehicle): the groups did not differ | latency to first entry in the open arms ([3]; vs vehicle (data not shown)): did not differ as a function of treatment group | number of marbles buried vs vehicle (Marble burying (mice); 5 mg/kg i.p.): buried significantly fewer marbles | number of marbles buried vs vehicle (Marble burying (mice); 10 mg/kg i.p.): did not reach statistical significance | immobile time in forced swim test vs vehicle (Forced swim test (rats); 10 mg/kg s.c.): without effect | duration of immobility in forced swim test vs vehicle (Forced swim test (mice); 1 mg/kg i.p.): did not produce a significant effect | duration of immobility in forced swim test vs vehicle (Forced swim test (mice); 5 mg/kg i.p.): did not produce a significant effect | duration of immobility in forced swim test vs vehicle (Forced swim test (mice); 10 mg/kg i.p.): did not produce a significant effect | block of rat α3β4 nAChR channels (rat α3β4 nAChR channels): potently block

CCC1=NC(C)CC1(c1ccccc1)c1ccccc1 (single isomer, unassigned; (+)) [(+)-EMDP, 2-ethyl-5-methyl-3,3-diphenyl-1-pyrroline hydrochloride]
IC50 (human α4β2 nAChRs): 24000 ± 5000 nM | IC50 (human α3β4 nAChRs): 7400 ± 2100 nM

CC=C1N(C)C(C)CC1(c1ccccc1)c1ccccc1 (single isomer, unassigned; (-)) [(−)-EDDP, 2-ethylidene-1,5,dimethyl-3,3-diphenylpyrrolidine perchlorate]
IC50 (human α4β2 nAChRs): 1400 ± 200 nM | IC50 (human α3β4 nAChRs): 700 ± 60 nM
